Measured values reported in PMC12214830, “The human RIF1-Long isoform interacts with BRCA1 to promote recombinational fork repair under DNA replication stress” (Nature Communications, 2025).

Test system: RIF1-BRCA1 proximity in RPE-1 cells
Experiment: RIF1-BRCA1 proximity ligation assay, RPE-1 cells
Assay type: cell-based, human
Experimental: Proximity ligation assays were performed using the Duolink In Situ PLA Fluorescence Protocol (Sigma-Aldrich, DUO92101) following the manufacturer’s instruction. Cells were grown on glass coverslips and treated as indicated for specific experiments. Cells were then permeabilized with 0.5% TritonX-100 in PBS for 10 min on ice, and fixed with 3% formaldehyde, 2% sucrose in PBS for 10 min at room temperature (RT). After fixation, coverslips were blocked in 3% BSA in PBS for 1 h at RT and incubated with primary antibodies (anti-RIF1, Bethel laboratories A300-568A, 1:1000 dilution; anti-BRCA1, Santa Cruz Biotechnologies, sc-6954, 1:200 dilution), for 1 h at RT in a humidity chamber. Primary antibodies were then washed off with PLA washing buffer A supplied in the Duolink In Situ PLA kit. Coverslips were next incubated sequentially with PLA Probes (1 h at 37 °C), ligation solution (30 min at 37 °C) and amplification solution (100 min at 37 °C), with washes by washing buffer A in between each step. At the end of incubation, coverslips were washed with washing buffer B supplied in the Duolink In Situ PLA kit. Coverslips were then mounted on glass slides with PLA Mounting medium with DAPI. Images were captured by fluorescence microscopy (Zeiss Axio Imager). PLA foci number in each nucleus were analysed by CellProfiler Software[74] with a custom-made pipeline.
For EdU labelling combined with proximity ligation assay, cells were labelled with 10 µM EdU for 15 min, washed free of EdU and next incubated with medium containing 4 mM HU medium for 4 h. Cells were then permeabilized, fixed and subjected to RIF1-BRCA1 PLA procedures. After all PLA steps, EdU detection was performed following manufacturer’s instructions in the Click-iT EdU Imaging Kit (Invitrogen, C10640).
For proximity ligation assays and immunofluorescence signal intensity measurements, when comparing between two samples, statistical significance of differences was calculated by Mann-Whitney test for non-parametric distributions using GraphPad Prism software (v.9). When comparing among three or more samples, p values were calculated by Kruskal-Wallis test for non-parametric distributions with Dunn’s multiple comparisons using GraphPad Prism software (v.9). For RIF1 foci formation analysis (Fig. 6B), p values were calculated by two-tailed Student’s t test. For nuclear BRCA1 intensity fold change analyses (Fig. 6C, D), p values were calculated by two-tailed one-sample t test using GraphPad Prism software (v.9). For RAD51 foci formation analyses (Fig. 7B, E and Supplementary Fig. 7B), p values were calculated by chi-square test. For HR Reporter assay analysis (Fig. 7G and Supplementary Fig. 7L), p values were calculated by two-tailed paired Student’s t test. For micronuclei frequency analysis (Fig. 7H), p values were calculated by one-tailed paired Student’s t test. All Student’s t tests were performed with Excel T.TEST function. Chi-square tests were performed with the online Chi-square test calculator at https://www.socscistatistics.com/tests/chisquare2/default2.aspx. Sample number n for all box-and-whisker plots and dot plots are listed in Supplementary Data 1.

[1] = Fig S4F (repeat of 4E), 0h post-HU
[2] = Fig S4F (repeat of 4E), 4h post-HU
[3] = Fig S4F (repeat of 4E), 8h post-HU

## NC(=O)NO [HU, hydroxyurea]
4 h after HU removal
  RIF1-BRCA1 proximity signal after HU removal: retained
8 h post-release
  RIF1-BRCA1 proximity signal after HU removal: declined to baseline level
Fig 3B, HU 4 mM 3 h
  RIF1-BRCA1 PLA foci per nucleus, mean: 1.331
  RIF1-BRCA1 PLA foci per nucleus, median: 1
Fig 3B, HU 24 h
  RIF1-BRCA1 PLA foci per nucleus, mean: 3.899
  RIF1-BRCA1 PLA foci per nucleus, median: 3
Fig 3C, HU 4 mM 24 h
  RIF1-BRCA1 PLA foci per nucleus, mean: 2.024
  RIF1-BRCA1 PLA foci per nucleus, median: 1
Fig 4E, 0h post-HU
  RIF1-BRCA1 PLA foci per nucleus, mean: 1.913
  RIF1-BRCA1 PLA foci per nucleus, median: 1, 1, 1, 1
Fig 4E, 4h post-HU
  RIF1-BRCA1 PLA foci per nucleus, mean: 1.712
  RIF1-BRCA1 PLA foci per nucleus, median: 1, 1, 1, 1
Fig 4E, 8h post-HU
  RIF1-BRCA1 PLA foci per nucleus, mean: 0.946
  RIF1-BRCA1 PLA foci per nucleus, median: 1, 1, 1, 1
Fig 4F, HU 4 mM 24 h
  RIF1-BRCA1 PLA foci per nucleus, mean: 7.107
  RIF1-BRCA1 PLA foci per nucleus, median: 5
[1]
  RIF1-BRCA1 PLA foci per nucleus, mean: 0.786
  RIF1-BRCA1 PLA foci per nucleus, median: 0, 0, 0, 0
[2]
  RIF1-BRCA1 PLA foci per nucleus, mean: 0.617
  RIF1-BRCA1 PLA foci per nucleus, median: 0, 0, 0, 0
[3]
  RIF1-BRCA1 PLA foci per nucleus, mean: 0.355
  RIF1-BRCA1 PLA foci per nucleus, median: 0, 0, 0, 0
Fig S4G (repeat), HU 4mM 24hr
  RIF1-BRCA1 PLA foci per nucleus, mean: 7.828
  RIF1-BRCA1 PLA foci per nucleus, median: 6
Fig S4J, HU 4mM 24hr
  RIF1-BRCA1 PLA foci per nucleus, mean: 7.107
  RIF1-BRCA1 PLA foci per nucleus, median: 0, 5, 5
HU 3 h
  RIF1-BRCA1 PLA foci: observable
HU 24 h
  RIF1-BRCA1 PLA foci: significantly increased
